{"source": "patent US10947260B2", "about": "“Phosphinolactone derivatives and pharmaceutical uses thereof” (INSTITUT NATIONAL DE LA SANTE ET DE LA RECHERCHE MEDICALE …, priority 2016, dated 2021)", "format_in_all_cases": "in vivo", "key": {"[1]": {"system": "APPSwe mice", "experiment": "Spatial learning in pool, APPSwe mice", "method": "FIG. 9: Spatial learning in pool (a-c) and object recognition (d-f) for APPSwe mice after 2-month treatment with compound 3b. Pool: acquisition profiles of WT mice treated with V and 3b (2 mg/kg) (a) or APPSwe mice (b). (c) Presence in training quadrant (T) and mean in the other quadrants (o) during trial test performed 48 h after the last training session. Friedman non-parametric ANOVA with repeated measures: Fr=21.7, p<0.001 for the group WT/V, Fr=21.8, p<0.001 for the group WT/3b at (a); Fr=13.0, p<0.05 for group APPSwe/V, Fr=12.2, p<0.05 for group APPSwe/3b at (b). Object recognition: Number of contacts with the objects during sessions 2 and 3 (d) and preferences for object at position 2 computed as contacts (e) or contact time (f). ^∘ p<0.05, ^∘∘ p<0.01 compared with chance level: 15 s at (c), 50% at (e, f), One Sample t-test. ^$ p<0.05, ^$$ p<0.01, ^$$$ p<0.001 compared with the mean of the other quadrants (o) at (c). *p<0.05 compared with group WT/V at (d).\nFIG. 11: Spatial learning in pool (a-c) and object recognition (d-f) for APPSwe mice after 2-month treatment with compound 3c. Pool: acquisition profiles of WT mice treated with V and 3c (2 mg/kg) (a) or APPSwe mice (b). (c) Presence in training quadrant (T) and mean in the other quadrants (o) during the trial test performed 48 h after the last training session. Friedman non-parametric ANOVA with repeated measures: Fr=20.7, p<0.001 for group WT/V, Fr=17.5, p<0.001 for group WT/3c at (a); Fr=11.4, p<0.05 for group APPSwe/V, Fr=13.6, p<0.01 for group APPSwe/3b at (b). […]\nThe pool was a circular water chamber (diameter 140 cm, height 40 cm). […] Swims could be recorded using Videotrack® ViewPoint software, (Champagne-au-Mont-d'Or, France), with trajectories analysed for time and distance. […]\nAcquisition phase: this consisted of 3 swims per day for 5 days with an interval of 20 min. […] Swim latency was measured. […] The median of swim times was calculated for each day and expressed for the experimental group as a mean±SEM.\nRecall phase: a trial test was conducted […] after the last acquisition session. […] The session was monitored by video and the time spent in the training quadrant (where the platform had been placed) was measured.\nAfter 2-month treatment, the mice were examined with a complex long-term spatial learning test, the locating of an invisible platform in a circular pool 1.5 m in diameter, followed by the object recognition test. […] 48 h after the last acquisition session, the platform was withdrawn from the pool and the time spent in each of the quadrants of the pool was analysed. […]"}, "[2]": {"system": "APPSwe mice", "experiment": "Object recognition test, APPSwe mice", "conditions": "2-month treatment", "method": "FIG. 9: Spatial learning in pool (a-c) and object recognition (d-f) for APPSwe mice after 2-month treatment with compound 3b. Pool: acquisition profiles of WT mice treated with V and 3b (2 mg/kg) (a) or APPSwe mice (b). (c) Presence in training quadrant (T) and mean in the other quadrants (o) during trial test performed 48 h after the last training session. Friedman non-parametric ANOVA with repeated measures: Fr=21.7, p<0.001 for the group WT/V, Fr=21.8, p<0.001 for the group WT/3b at (a); Fr=13.0, p<0.05 for group APPSwe/V, Fr=12.2, p<0.05 for group APPSwe/3b at (b). […]\nThe apparatus consisted of four square-shaped arenas (50 cm×50 cm×50 cm in height) made of white plexiglass and placed on a platform equipped with infrared light-emitting diodes (IR). The locomotor activity of the animal and position of the nose were able to be captured by an IR-sensitive camera and analysed using Videotrack and Nosetrack software. […] Each mouse was placed in the open field and exploratory activity and nose position were recorded for 10 min. Activity was analysed in terms of number of contacts with the objects and contact time. […] Each mouse was again placed in the open field and exploratory activity recorded for 10 min. Activity was analysed in similar manner. […]"}, "[3]": {"system": "mice", "experiment": "Forced swim test", "conditions": "5 mg/kg", "method": "FIG. 13: Assays of compound 3b as positive modulator of the sigma-1 protein. […] Male Swiss mice aged 7 weeks (n=10-12 per group) were forced to swim for 15 min on Day 1 and 6 min on Day 2. They were given NE-100 (10 mg/kg ip), 10 min before compound 3b (10 mg/kg ip) and 20 min before the session of Day 2. Immobility was measured over the last 5 minutes of the session. The vehicle solution was distilled water. F(3.42)=4.45, p<0.01; **p<0.01 vs. group V/V, ##p<0.01 vs. group V/3b, Dunnet test. […] Wild-type mice (Wt, n=14-15) and S1R KO mice (n=9-10) were forced to swim 15 min on Day 1 and 6 min on Day 2. They were given compound 3b (10 mg/kg ip) 20 min before the session on Day 2. Immobility was measured during the last 5 minutes of the session. The vehicle solution was distilled water. F(3.49)=6.64, p<0.001; **p<0.01 vs. group Wt/V, Dunnett test. […] Male Swiss mice aged 7 weeks (n=8-23 per group) were forced to swim for 15 min on Day 1 and 6 min on Day 2. They were given igmesine (10, 30 mg/kg ip) and/or compound 3b (10 mg/kg ip) 20 min before the session on Day 2. NE-100 (10 mg/kg ip) was injected 10 min before igmesine and compound 3b. Immobility was measured during the last 5 minutes of the session. The vehicle solution was distilled water. F(6.90)=5.59, p<0.0001; ***p<0.001 vs. group V, ##p<0.01 vs. group V/Igmesine (10)+3B (5), Dunnett test."}}}
{"smiles": "CC1(C)COP(=O)(c2ccc(Cl)cc2)C(C)(C)N1", "note": "(racemic) [Compound 3c, (±)-2-(4-Chlorophenyl)-2-oxo-3,3,5,5-tetramethyl-[1,4,2]-oxazaphosphinane]", "values": [{"measurement": "spatial performance of WT mice at trial test", "setting": "[1]; 1 mg/kg/d", "value": "decrease is noted in spatial performance"}, {"measurement": "pool acquisition profile, APPSwe animals", "setting": "[1]; 1 mg/kg/d, 2-month treatment", "value": "did not affect the acquisition profile"}, {"measurement": "presence in the training quadrant at trial test, APPSwe mice", "setting": "[1]; 1 mg/kg/d, 48 h after last training", "value": "significantly restored preferred presence in the training quadrant"}, {"measurement": "decrease in number of contacts with objects, APPSwe animals", "setting": "[2]; 1 mg/kg/d", "value": "blocked"}, {"measurement": "deficit of novel object preference (contacts, contact time), APPSwe animals", "setting": "[2]; session 3", "value": "significantly blocked or attenuated"}]}
{"smiles": "CC1(C)COP(=O)(c2cccc(Cl)c2)C(C)(C)N1", "note": "(racemic) [Compound 3b, (±)-2-(3-Chlorophenyl)-2-oxo-3,3,5,5-tetramethyl-[1,4,2]-oxazaphosphinane]", "values": [{"measurement": "spatial performance of WT mice at trial test", "setting": "[1]; 2 mg/kg/j IP", "value": "decrease is noted in spatial performance"}, {"measurement": "activity in forced swim test", "setting": "[3]", "value": "not active"}]}
